Test results: ChEMBL document CHEMBL1201862, “PubChem BioAssay data set” (2004)
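Tested at 5 concentrations; 48 h exposure; 96-well plates; endpoints linearly interpolated, else capped at highest concentration. At the GI50, growth is halved.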 Calls of active or inactive are those of the source. Rule as the data show it: active = GI50 up to about 1.1 µM and inactive = higher.

Columns and labels:
Assay in all cases: inhibition of tumour cell growth, NCI panel, 48 h
HOP-92 = test system: HOP-92
SK-MEL-28 = test system: SK-MEL-28
SK-MEL-5 = test system: SK-MEL-5
SNB-75 = test system: SNB-75
OVCAR-8 = test system: OVCAR-8
KM12 = test system: KM12
NCI-H226 = test system: NCI-H226
SN12C = test system: SN12C
HCT-116 = test system: HCT-116
ACHN = test system: ACHN
HT-29 = test system: HT-29
MCF7 = test system: MCF7
LOX IMVI = test system: LOX IMVI
CAKI-1 = test system: CAKI-1
A498 = test system: A498
A549 = test system: A549
OVCAR-3 = test system: OVCAR-3
SK-OV-3 = test system: SK-OV-3
SK-MEL-2 = test system: SK-MEL-2

Measured: GI50

COC(=O)[C@@H]1[C@H](O)[C@H](C)[C@H](O)[C@H](C)/C=C\C=C(\C)C(=O)Nc2c(C)c(OC(C)=O)c3c(c2O)C(=O)C(C)=C2OCOC(=C23)/C(C)=C/[C@@H](O)[C@H](O)[C@@H](C)[C@H]1OC(C)=O
inactive: HOP-92 80.5 µM | SK-MEL-28 55.6 µM | SK-MEL-5 57.4 µM | SNB-75 > 100 µM | OVCAR-8 43.8 µM | KM12 95.3 µM | NCI-H226 > 100 µM | SN12C 36.8 µM | HCT-116 22.5 µM | ACHN > 100 µM | HT-29 31.3 µM | MCF7 26.2 µM | LOX IMVI 40 µM

O=c1[nH]c(=O)n(CCOc2ccccc2)cc1Nc1ccccc1
inactive: CAKI-1 > 100 µM | HOP-92 6.32 µM | SK-MEL-28 > 100 µM | SK-MEL-5 > 100 µM | A498 > 100 µM | KM12 > 100 µM | SN12C > 100 µM | A549 > 100 µM | HCT-116 > 100 µM | ACHN 92.7 µM | HT-29 > 100 µM | MCF7 > 100 µM | OVCAR-3 > 100 µM | LOX IMVI > 100 µM

CC1=C(C(=O)Nc2ccccc2)C(c2cccc3ccccc23)C(C(=O)Nc2ccccc2)=C(C)N1
inactive: CAKI-1 15.6 µM | HOP-92 24 µM | SK-MEL-28 18 µM | SK-MEL-5 19.3 µM | SNB-75 15.6 µM | A498 24.1 µM | OVCAR-8 16.7 µM | NCI-H226 1.74 µM | SN12C 18 µM | A549 28 µM | HCT-116 15.4 µM | ACHN 24.2 µM | SK-OV-3 17.1 µM | HT-29 18.8 µM | SK-MEL-2 17 µM | OVCAR-3 12.8 µM | LOX IMVI 16.7 µM

COc1ccc(OC)c(/C(C)=N/NC(N)=S)c1
inactive: CAKI-1 > 100 µM | HOP-92 > 100 µM | SK-MEL-28 > 100 µM | SK-MEL-5 > 100 µM | SNB-75 > 100 µM | A498 > 100 µM | OVCAR-8 > 100 µM | KM12 > 100 µM | NCI-H226 > 100 µM | SN12C > 100 µM | A549 > 100 µM | HCT-116 > 100 µM | ACHN > 100 µM | SK-OV-3 > 100 µM | HT-29 > 100 µM | SK-MEL-2 > 100 µM | OVCAR-3 > 100 µM | LOX IMVI > 100 µM

CC1=NC2(C(=O)O)C3(C(=O)O)N=C(C)OC3(C(F)(F)F)C2(C(F)(F)F)O1 (stereo not drawn)
inactive: CAKI-1 > 100 µM | HOP-92 > 100 µM | SK-MEL-28 > 100 µM | SNB-75 > 100 µM | A498 > 100 µM | OVCAR-8 > 100 µM | KM12 > 100 µM | NCI-H226 > 100 µM | SN12C > 100 µM | A549 > 100 µM | HCT-116 > 100 µM | ACHN > 100 µM | SK-OV-3 > 100 µM | HT-29 > 100 µM | SK-MEL-2 > 100 µM | OVCAR-3 > 100 µM | LOX IMVI > 100 µM

CC(C)(C)C(=C[S+]([O-])/N=C/c1ccccc1)C(C)(C)C (stereo not drawn)
inactive: CAKI-1 30 µM | HOP-92 19.7 µM | SK-MEL-28 > 100 µM | SK-MEL-5 24.3 µM | SNB-75 16.4 µM | A498 36.4 µM | OVCAR-8 59.4 µM | KM12 44.6 µM | NCI-H226 20.7 µM | SN12C 21.1 µM | A549 33.4 µM | HCT-116 30.4 µM | ACHN 36.8 µM | SK-OV-3 26.6 µM | HT-29 38.4 µM | SK-MEL-2 15.9 µM | OVCAR-3 34.1 µM | LOX IMVI 18.8 µM

COC(=O)C1CC2c3c(c4ccccc4n3C)CC(C1=O)N2C (stereo not drawn)
inactive: CAKI-1 43.5 µM | HOP-92 74.3 µM | SK-MEL-28 51.9 µM | SK-MEL-5 25.1 µM | SNB-75 31.5 µM | A498 28.2 µM | OVCAR-8 34.5 µM | KM12 37.8 µM | NCI-H226 50.6 µM | SN12C 67.8 µM | A549 36.4 µM | HCT-116 33 µM | ACHN 35.7 µM | SK-OV-3 51.4 µM | HT-29 42.1 µM | SK-MEL-2 > 100 µM | OVCAR-3 34.8 µM | LOX IMVI 78.9 µM

CC1C2C=C(O)C(=O)C(C2=O)C1c1ccccc1 (stereo not drawn)
inactive: CAKI-1 > 100 µM | HOP-92 > 100 µM | SK-MEL-28 > 100 µM | SK-MEL-5 > 100 µM | SNB-75 82.6 µM | A498 > 100 µM | OVCAR-8 > 100 µM | KM12 > 100 µM | NCI-H226 45.1 µM | A549 > 100 µM | ACHN > 100 µM | SK-OV-3 > 100 µM | HT-29 > 100 µM | SK-MEL-2 > 100 µM | OVCAR-3 > 100 µM | LOX IMVI > 100 µM

O=S(=O)(CC1=NC2C=CC=CC2N=C1)NCc1ccccc1 (stereo not drawn)
inactive: CAKI-1 > 100 µM | HOP-92 75.3 µM | SK-MEL-28 > 100 µM | SK-MEL-5 40 µM | SNB-75 > 100 µM | A498 > 100 µM | OVCAR-8 > 100 µM | KM12 > 100 µM | NCI-H226 78.7 µM | SN12C > 100 µM | A549 > 100 µM | HCT-116 > 100 µM | ACHN > 100 µM | SK-OV-3 > 100 µM | HT-29 > 100 µM | SK-MEL-2 > 100 µM | OVCAR-3 83.2 µM | LOX IMVI > 100 µM

COc1ccc(-c2csc(Cc3nc4ccccc4c(=O)n3-c3ccc(Cl)cc3)n2)cc1
inactive: CAKI-1 > 100 µM | SK-MEL-28 27 µM | SK-MEL-5 19.3 µM | SNB-75 > 100 µM | A498 70.8 µM | OVCAR-8 57.7 µM | KM12 31 µM | NCI-H226 74.6 µM | A549 22.7 µM | HCT-116 19.8 µM | ACHN 30.9 µM | SK-OV-3 > 100 µM | HT-29 35.6 µM | SK-MEL-2 17.8 µM | MCF7 32.8 µM | OVCAR-3 40.5 µM | LOX IMVI 39.4 µM

CCOC(=O)c1c(-c2[nH]c(C(=O)OCc3ccccc3)c(C)c2C(=O)OCC)[nH]c(C(=O)OCc2ccccc2)c1C
inactive: CAKI-1 > 100 µM | HOP-92 55.2 µM | SK-MEL-28 > 100 µM | SK-MEL-5 > 100 µM | SNB-75 29 µM | A498 > 100 µM | OVCAR-8 > 100 µM | NCI-H226 > 100 µM | SN12C > 100 µM | A549 > 100 µM | HCT-116 > 100 µM | ACHN 58.2 µM | SK-OV-3 > 100 µM | HT-29 > 100 µM | SK-MEL-2 > 100 µM | OVCAR-3 > 100 µM | LOX IMVI > 100 µM
